Data as given in US7855076B2, “Use of discoidin domain receptor 1 (DDR1) and agents that affect the DDR1/collagen pathway” (The United States of America as represented by the …, priority 2002, dated 2010).

Columns and labels:
Assay type in all cases: cell-based, human
THP-1 cells = test: Flow cytometry of HLA-DR, CD11c, CD14, CD40 on PMA-treated THP-1 cells
Method: FIG. 5 is a graph showing the effects of collagen-activation of two DDR1 isoforms on the expression of CD11c, CD14, and CD40. Each cell line was plated at 5×10^6 cells/ml on either uncoated or collagen-coated plates and incubated at 37° C. for 24 hours in the presence of 10 nM PMA. Anti-1β integrin antibody (10 μg/ml) was used to block the effect of 1β integrin-collagen interaction. The percentage of CD11c, CD14, or CD40-positive cells is shown. Data are presented as the mean ±SD from three independent experiments.
Parental, mock, DDR1a-overexpressing, or DDR1b overexpressing THP-1 cells were plated at 5×10^6 cells/ml on either uncoated or collagen-coated plates and incubated at 37° C. for 24 or 48 hours in the presence of 10 nM PMA. One hundred thousand cells were suspended in 50 μl of cold PBS containing 0.1% NaN3, […] BSA and 200 μg/ml human IgG in a Falcon 2052 tube, and incubated for 10 minutes on ice. One μg of mouse monoclonal antibody against CD11c, CD14 CD40, or HLA-DR, or control mouse IgG were added to each tube and the cells were incubated for another 15 minutes on ice. The cells were washed with PBS, and then incubated with 1 μg of FITC-conjugated goat anti-mouse IgG for 15 minutes on ice. At the end of incubation, propidium iodide (PI) (100 μM) was added to each tube. The cells were washed by PBS, and subsequently analyzed by using a FACS scan (Becton Dickinson). Dead cells, determined by the incorporation of PI, were gated out. Results were processed by using the Cellquest software (Becton Dickinson).
The cells were then rinsed three times with RPMI 1640 containing 10% FCS, and incubated either with the p38 MAP kinase inhibitor SB203580, the MEK (MAP or ERK kinase) ½ inhibitor PD98059, or dimethylsulfoxide (DMSO) for 30 minutes, followed by an additional 12 hour incubation in the presence of 10 nM PMA plus collagen. The expression of HLA-DR was analyzed by flow cytometry.

[1] = system: monocyte-derived dendritic cells; test: Flow cytometry of CD80, CD83, CD86, HLA-DR on monocyte-derived DCs
Method: Human PBMC were isolated from leukapheresis preparations obtained by the Blood Bank, Clinical Center, National Institutes of Health (Bethesda, Md.). The leukocyte-rich preparation was overlaid on Accu-prep in 50 ml tubes and the tubes were centrifuged at 800×g for 20 min at room temperature. PBMC fractions were collected, washed once with PBS at room temperature and twice with complete medium at 4° C. and resuspended in the same medium. Monocytes were further purified by using iso-osmotic Percoll gradient. At this stage, the purity of monocytes was higher than 90%. The cells (5×10^5/ml) were allowed to adhere to the surface of 6-well plates. After a 5 hour incubation at 37° C., non-adherent cells were removed, and remaining adherent cells were subjected to the DC (Baggiolini et al., Adv. Immunol. 55:97-179, 1993). Over 95% of the adherent cells were positive for CD14 by flow cytometry analysis. Monocytes were briefly resuspended at a concentration of 1×10^6 cells/ml and cultured in complete medium containing 50 ng/ml GM-CSF and 50 ng/ml IL-4. Cells were cultured for 7 days, with cytokine added every second day, to obtain a population of immature monocyte-derived dendritic cells (DC). For maturation, immature DC (iDC) were treated with TNF-α (50 ng/ml) from day 5 to day 7. Mouse monoclonal anti-DDR1 antibody (513) (5 μg/ml) was used to specifically activate DDR1. Unrelated mouse monoclonal IgM was used as a control.
Monocytes were plated at a density of 5×10^6 cell/ml and incubated for 5 days in the presence of 50 ng/ml GM-CSF and 50 ng/ml IL-4. Cells were cultured for 7 days, with cytokine added every second day, to obtain a population of immature monocyte-derived DCs. For maturation, iDCs were incubated with TNF-α (50 ng/ml) from day 5 to day 7. For activation of DDR1 on DCs, the cells were incubated in the presence of either agonistic anti-DDR1 IgM (513) or control IgM, and the expression of CD80, CD83, CD86, and HLA-DR was measured using a flow cytometer.
A hundred thousand cells were resuspended in 50 μl of cold PBS containing 0.1% sodium azide, […] bovine serum albumin (BSA) and 200 μg/ml of human IgG, and then incubated for 10 minutes on ice. Subsequently, the cells were incubated with antibodies against CD80, CD83, CD86 or HLA-DR for 15 minutes on ice, and followed by washing with PBS. After washing, cells were incubated with FITC-conjugated goat anti-mouse IgG for 15 minutes on ice. At the end of the incubation, PI was added to 100 μM. Cells were washed by PBS, and subsequently analyzed on a FACscan (Becton Dickinson). Dead cells, determined by their PI-staining, were gated out. Results were processed using CellQuest software (Becton Dickinson). For the experiments of p38 MAP kinase inhibition, iDC were pre-treated with SB203580, or DMSO for 30 minutes, and then cultured with TNF-α alone, TNF-α plus 513 agonistic anti-DDR1 IgM (5 μg/ml), or TNF-α plus control IgM (5 μg/ml). These experiments were repeated with cells from three different donors.

DDR1 = test: Cell-surface DDR1 expression on PMN by flow cytometry
Method: PMN were incubated in presence of IFN-γ or GM-CSF for 24 hours and the expression of cell-surface DDR1 was measured by flow cytometry using an antibody raised against the extracellular domain of the receptor. One hundred thousand cells were suspended in 50 μl of cold PBS containing 0.1% NaN3, […] BSA and 200 μg/ml human IgG in a Falcon 2052, tube, and incubated for 10 minutes on ice. One μg of anti-DDR1 rabbit polyclonal antibody raised aginst the N-terminus of DDR1 (Transgenic, Inc., Kumamoto, Japan), or control mouse IgG was added to each tube and the cells were incubated for another 15 minutes on ice. The cells were washed with PBS, and then incubated with 1 μg of FITC-conjugated goat anti-mouse IgG for 15 minutes on ice. At the end of incubation, PI was added to each tube (100 μM). The cells were washed by PBS, and subsequently analyzed by using a FACS scan (Becton Dickinson). Dead cells, determined by the incorporation of PI, were gated out. Results were processed by using the Cellquest software (Becton Dickinson).

[2] = iDC pre-treated, TNF-α-induced maturation with agonistic anti-DDR1 IgM or control IgM
[3] = DC maturation induced with TNF-α 50 ng/ml
[4] = DDR1b-overexpressing cells, collagen-coated plates, PMA, 24 hours

With C[S+]([O-])c1ccc(-c2nc(-c3ccncc3)c(-c3ccc(F)cc3)[nH]2)cc1 (stereo not shown) [SB203580] the “expression of HLA-DR” value (THP-1 cells; collagen-activated PMA-treated DDR1b-overexpressing cells, 24 hours) was “dose-dependently inhibited”, the “expression of CD80” value [1, 2] was “almost completely inhibited” and the “expression of CD83” value [1, 2] was “almost completely inhibited”. For the same compound, the “expression of CD86” value [1, 2] was “almost completely inhibited” and the “expression of HLA-DR” value [1, 2] was “almost completely inhibited”.
In the case of TNF-α, the “IFNγ-induced DDR1 expression” value (DDR1) is reported as “almost completely inhibited”, the “expression of CD80” value [1, 3] is reported as “up-regulated” and the “expression of CD83” value [1, 3] is reported as “up-regulated”. The “expression of CD86” value [1, 3] was “up-regulated” and the “expression of HLA-DR” value [1, 3] was “up-regulated”.
In the case of collagen, the “cells expressing HLA-DR” value (THP-1 cells; DDR1b-overexpressing cells, collagen-activated, PMA-treated, 12 hours) is reported as “Approximately 10%”, the “cells expressing HLA-DR” value (THP-1 cells; DDR1b-overexpressing cells, collagen-coated plates, 10 nM PMA, 24 hour) is reported as “approximately 25%” and the “cells expressing HLA-DR” value (THP-1 cells; DDR1b-overexpressing cells, collagen-coated plates, 10 nM PMA, 48 hour) is reported as “Approximately 70%”. The “cells expressing CD11c” value (THP-1 cells; [4]) was “approximately 53%”, the “cells expressing CD14” value (THP-1 cells; [4]) was ~35% and the “cells expressing CD40” value (THP-1 cells; [4]) was “approximately 19%”.
